US20240415819A1, “MACROCYCLIC COMPOUNDS AS PROTEASOME SUBUNIT BETA TYPE-5 INHIBITORS” (Lead Discovery Center GmbH, priority 2021, published 2024)
pIC50: −log10 of the molar value.

Experiments:
[1] = target: T1, β5 subunit of the human constitutive proteasome (CPS) (Homo sapiens, UniProt P28074); assay: β5 inhibition assay, human constitutive proteasome (Suc-LLVY-AMC); type: biochemical; conditions: IC50 class, Suc-LLVY-AMC substrate
T1 construct: purchased Boston Biochem E-360
Description: The enzymatic activity of the β5 subunit of the human constitutive proteasome (CPS) is analyzed. In another assay, which differs from the assay of the human constitutive proteasome only in using the human immunoproteasome (IPS) the enzymatic activity of the β5 subunit of the human immunoproteasome (IPS) is analyzed. […] Inhibition is indicated as IC50 [nM] (“-”=not measured).

[2] = target: T2, β5 subunit of the human immunoproteasome (IPS) (Homo sapiens, UniProt P28062); assay: β5 inhibition assay, human immunoproteasome (Suc-LLVY-AMC); type: biochemical; conditions: IC50 class, Suc-LLVY-AMC substrate
T2 construct: purchased Boston Biochem E-370
Description: The enzymatic activity of the β5 subunit of the human constitutive proteasome (CPS) is analyzed. In another assay, which differs from the assay of the human constitutive proteasome only in using the human immunoproteasome (IPS) the enzymatic activity of the β5 subunit of the human immunoproteasome (IPS) is analyzed. Incubation of the enzyme with its fluorogenic substrate Suc-LLVY-AMC leads to liberation of the fluorescent dye AMC which can be measured with a suitable plate reader. • 100 mM HEPES pH7.5 • 50 mM NaCl • 0.02% SDS • 1 mM DTT (add fresh) • Victor X5 (Perkin Elmer) • Label: Umbeliferone (0.1s) • Excitation wavelength: 355 nm • Emission wavelength: 460 nm • 4 μl human cPS or IPS enzyme in assay buffer (final assay concentration 1 nM) or 4 μl assay buffer for negative controls • Compound addition via acoustic dispenser (Echo 520, Labcyte) • Mix and incubate @ RT for 10 min • 4 μl Suc-LLVY-AMC substrate (final assay concentration 22.6 μM) • Mix and incubate @ RT for 4 h (dark) • Stop reaction with 4 μl Bortezomib (final assay concentration 1 μM) • 15 min @ RT • Measure (Excitation 355 nm; Emission 460 nm)

HT-29 cells = assay: CellTiter-Glo luminescent cell viability assay with HT-29 cells (72h incubation); type: cell-based, human; conditions: Homo sapiens, HT-29, HT29 cells, read-out: CTG HT29
Description: Cell Titer Glo Viability Assay with HT-29 Cells (72h Incubation) The CellTiter-Glo Luminescent Cell Viability Assay (Promega) is a homogeneous method of determining the number of viable cells in culture. It is based on quantification of ATP, indicating the presence of metabolically active cells. On day 1 400 HT-29 cells per well are seeded in white 384well plates (Greiner, #781080) in 25 μl cell culture medium (DMEM (PAN-Biotech #P04-03590)+10% FCS+glutamine). After incubation for 24 h at 37° C./5% CO2 compounds or DMSO are added at different concentrations by Echo Liquid Handling Technology. Cells are further incubated in humidified chambers for 72 h at 37° C. and 5% CO2. Cells treated with the compound vehicle DMSO are used as positive controls and cells treated with 10 μM Staurosporine serve as negative controls. At day 5-72h after compound addition—the CellTiter Glo Reagent is prepared according to the instructions of the kit (Promega Inc.): Reagent is mixed 1:1 with cell culture medium. Thereon, mixture and assay plates are equilibrated at room temperature for 20 min. Equal volumes of the reagent-medium-mixture is added to the volume of culture medium present in each well. The plates are mixed at […] for 2 minutes on an orbital shaker. The microplates are then incubated at room temperature for 10 minutes for stabilization of the luminescent signal. Following incubation the luminescence is recorded on a Victor microplate reader (Perkin Elmer) using a 200 ms integration time. The data is then analyzed with Excel using the XLFIT Plugin (dose response Fit 205) for IC50-determination. As quality control the Z′-factor is calculated from 16 positive and negative control values. […] Inhibition is indicated as IC50 [nM] (“-”=not measured).

| SMILES | pIC50 [1] | pIC50 [2] | pIC50 (HT-29 cells) |
| --- | --- | --- | --- |
| Cc1ccc2cc1CNC(=O)[C@H](CCc1ccccc1)NC(=O)[C@@H](NC(=O)OCc1ccccc1)CC(=O)N1CC(CCO2)Cc2ccccc21 (stereo partly drawn) [Compound 313, benzyl ((9S, 12S)-5^4-methyl-8,11,14-trioxo-9-phenethyl-11,12,13,14-tetrahydro-4-oxa-7,10-diaza-1(3,1)-quinolina-5(1,3)-benzenacyclotetradecaphane-12-yl)carbamate] | < 5.30 | 6.00 to 6.30 | 6.30 to 7.00 |
| Cc1cc(CC(=O)N[C@H]2CC(=O)N3CCCC(CCOc4ccc(C)c(c4)CNC(=O)[C@H](CCc4ccccc4)NC2=O)C3)ccc1N (stereo partly drawn) [Compound 303, 2-(4-amino-3-methylphenyl)-N-((9S,12S)-5^4-methyl-8,11,14-trioxo-9-phenethyl-4-oxa-7,10-diaza-1(3,1)-piperidina-5(1,3)-benzenacyclotetradecaphane-12-yl)acetamide] | > 7.00 | > 7.00 | > 7.00 |
| Cc1ccc2cc1CNC(=O)C(CCc1cnccn1)NC(=O)[C@@H](NC(=O)[C@@H](C)c1ccccc1)CC(=O)N1CCCC(CCO2)C1 (stereo partly drawn) [Compound 107, (2S)—N-((12S)-5^4-methyl-8,11,14-trioxo-9-(2-(pyrazin-2-yl)ethyl)-4-oxa-7,10-diaza-1(3,1)-piperidina-5(1,3)-benzenacyclotetradecaphane-12-yl)-2-phenylpropanamide] |  |  | > 7.00 |
| CCNC(=O)N[C@H]1CC(=O)N2CCCC(CCOc3ccc(C)c(c3)CNC(=O)[C@H](CCc3ccccc3)NC1=O)C2 (stereo partly drawn) [Compound 38, 1-ethyl-3-((9S,12S)-5^4-methyl-8,11,14-trioxo-9-phenethyl-4-oxa-7,10-diaza-1(3,1)-piperidina-5(1,3)-benzenacyclotetradecaphane-12-yl)urea] |  |  | > 7.00 |
| CC(=O)N[C@H]1CC(=O)N2CC3CC(Oc4ccc(C)c(c4)CNC(=O)[C@H](CCc4ccccc4)NC1=O)C3C2 (stereo partly shown) [Compound 298, N-(3^4-methyl-6,9,12-trioxo-7-phenethyl-2-oxa-13,5,8-triaza-1(6,3)-bicyclo[3.2.0]heptana-3(1,3)-benzenacyclododecaphane-10-yl)acetamide] |  |  | 6.30 to 7.00 |
| Cc1ccc2cc1CNC(=O)[C@H](CCc1ccccc1)NC(=O)[C@@H](NC(=O)c1cccnc1)CC(=O)N1CCCC(CCO2)C1 (stereo partly drawn) [Compound 41, N-((9S,12S)-5^4-methyl-8,11,14-trioxo-9-phenethyl-4-oxa-7,10-diaza-1(3,1)-piperidina-5(1,3)-benzenacyclotetradecaphane-12-yl)nicotinamide] |  |  | > 7.00 |
| Cc1ccc2cc1CNC(=O)[C@H](CCc1ccccc1)NC(=O)[C@@H](NC(=O)C(C)(C)c1ccc(N)cc1)CC(=O)N1CCCC(CCO2)C1 (stereo partly drawn) [Compound 308, 2-(4-aminophenyl)-2-methyl-N-((9S,12S)-5^4-methyl-8,11,14-trioxo-9-phenethyl-4-oxa-7,10-diaza-1(3,1)-piperidina-5(1,3)-benzenacyclotetradecaphane-12-yl)propanamide] | > 7.00 | > 7.00 | > 7.00 |
| Cc1ccc2cc1CNC(=O)[C@H](CCc1ccccc1)NC(=O)[C@@H](NC(=O)OCc1ccccc1)CC(=O)N(C)CCO2 [Compound 312, benzyl ((8S,11S)-1^4,5-dimethyl-6,9,12-trioxo-11-phenethyl-2-oxa-5,10,13-triaza-1(1,3)-benzenacyclotetradecaphane-8-yl)carbamate] | < 5.30 | 6.30 to 7.00 | 6.30 to 7.00 |

Other lines, results leading:

| pIC50 [1] | pIC50 [2] | pIC50 (HT-29 cells) | SMILES |
| --- | --- | --- | --- |
| > 7.00 | > 7.00 | > 7.00 | Cc1ccc2cc1CNC(=O)[C@H](CCc1ccccc1)NC(=O)[C@@H](NC(=O)C1(c3ccc(N)cc3)CCC1)CC(=O)N1CCCC(CCO2)C1 (stereo partly drawn) [Compound 306, 1-(4-aminophenyl)-N-((9S,12S)-5^4-methyl-8,11,14-trioxo-9-phenethyl-4-oxa-7,10-diaza-1(3,1)-piperidina-5(1,3)-benzenacyclotetradecaphane-12-yl)cyclobutane-1-carboxamide] |
| > 7.00 | > 7.00 | > 7.00 | Cc1ccc2cc1CNC(=O)[C@H](CCc1ccccc1)NC(=O)[C@@H](NC(=O)C1(c3ccc(N)cc3)CCCC1)CC(=O)N1CCCC(CCO2)C1 (stereo partly drawn) [Compound 305, 1-(4-aminophenyl)-N-((9S,12S)-5^4-methyl-8,11,14-trioxo-9-phenethyl-4-oxa-7,10-diaza-1(3,1)-piperidina-5(1,3)-benzenacyclotetradecaphane-12-yl)cyclopentane-1-carboxamide] |
| > 7.00 | > 7.00 | > 7.00 | Cc1ccc2cc1CNC(=O)[C@H](CCc1ccccc1)NC(=O)[C@@H](NC(=O)c1cccc3c1CNCC3)CC(=O)N1CCCC(CCO2)C1 (stereo partly drawn) [Compound 316, N-((9S,12S)-5^4-methyl-8,11,14-trioxo-9-phenethyl-4-oxa-7,10-diaza-1(3,1)-piperidina-5(1,3)-benzenacyclotetradecaphane-12-yl)-1,2,3,4-tetrahydroisoquinoline-5-carboxamide] |
| > 7.00 | > 7.00 | > 7.00 | Cc1ccc2cc1CNC(=O)[C@H](CCc1ccccc1)NC(=O)[C@@H](NC(=O)Cc1ccc(N)cc1C)CC(=O)N1CCCC(CCO2)C1 (stereo partly drawn) [Compound 304, 2-(4-amino-2-methylphenyl)-N-((9S,12S)-5^4-methyl-8,11,14-trioxo-9-phenethyl-4-oxa-7,10-diaza-1(3,1)-piperidina-5(1,3)-benzenacyclotetradecaphane-12-yl)acetamide] |
| > 7.00 | > 7.00 | > 7.00 | Cc1ccc2cc1CNC(=O)[C@H](CCc1ccccc1)NC(=O)[C@@H](NC(=O)C1CCc3cc(N)ccc31)CC(=O)N1CCCC(CCO2)C1 (stereo partly drawn) [Compound 317, 5-amino-N-((9S,12S)-5^4-methyl-8,11,14-trioxo-9-phenethyl-4-oxa-7,10-diaza-1(3,1)-piperidina-5(1,3)-benzenacyclotetradecaphane-12-yl)-2,3-dihydro-1H-indene-1-carboxamide] |
| > 7.00 | > 7.00 | > 7.00 | Cc1ccc2cc1CNC(=O)[C@H](CCc1ccccc1)NC(=O)[C@@H](NC(=O)C1(c3ccc(N)cc3)CC1)CC(=O)N1CCCC(CCO2)C1 (stereo partly drawn) [Compound 307, 1-(4-aminophenyl)-N-((9S,12S)-5^4-methyl-8,11,14-trioxo-9-phenethyl-4-oxa-7,10-diaza-1(3,1)-piperidina-5(1,3)-benzenacyclotetradecaphane-12-yl)cyclopropane-1-carboxamide] |
| > 7.00 | > 7.00 | > 7.00 | Cc1ccc2cc1CNC(=O)[C@H](CCc1ccccc1)NC(=O)[C@@H](NC(=O)OCc1ccccc1)CC(=O)N1CC(CCO2)CCC1C (stereo partly drawn) [Compound 315, benzyl ((9S,12S)-1^6,5^4-dimethyl-8,11,14-trioxo-9-phenethyl-4-oxa-7,10-diaza-1(3,1)-piperidina-5(1,3)-benzenacyclotetradecaphane-12-yl)carbamate] |
| > 7.00 | > 7.00 | > 7.00 | Cc1ccc2cc1CNC(=O)[C@H](CCc1ccccc1)NC(=O)[C@@H](NC(=O)Cc1ccc(N)cc1F)CC(=O)N1CCCC(CCO2)C1 (stereo partly drawn) [Compound 318, 2-(4-amino-2-fluorophenyl)-N-((9S,12S)-5^4-methyl-8,11,14-trioxo-9-phenethyl-4-oxa-7,10-diaza-1(3,1)-piperidina-5(1,3)-benzenacyclotetradecaphane-12-yl)acetamide] |
| > 7.00 | > 7.00 | > 7.00 | Cc1ccc2cc1CNC(=O)[C@H](CCc1ccccc1)NC(=O)[C@@H](NC(=O)c1cccc3cc(N)ncc13)CC(=O)N1CCCC(CCO2)C1 (stereo partly drawn) [Compound 319, 3-amino-N-((9S,12S)-5^4-methyl-8,11,14-trioxo-9-phenethyl-4-oxa-7,10-diaza-1(3,1)-piperidina-5(1,3)-benzenacyclotetradecaphane-12-yl)isoquinoline-8-carboxamide] |
